According to ChEMBL document CHEMBL2429777, “Synthesis and antibacterial activity evaluation of 2,6-bis(6-substituted-1,2,4-triazolo[3,4-b][1,3,4]thiadiazol-3-yl)pyridine derivatives” (2013):
Values after ≈ are worked out from the molar mass of the structure shown.

Legend:
Staphylococcus aureus [1] = assay: Antibacterial activity against Staphylococcus aureus by serial dilution method; format: functional
Streptococcus pneumoniae [2] = assay: Antibacterial activity against Streptococcus pneumoniae at 250 ug/tube after 24 hrs by cylinder-plate method; format: functional
Bacillus subtilis [3] = assay: Antibacterial activity against Bacillus subtilis at 250 ug/tube after 24 hrs by cylinder-plate method; format: functional
Streptococcus pneumoniae [4] = assay: Antibacterial activity against Streptococcus pneumoniae by serial dilution method; format: functional
Escherichia coli [5] = assay: Antibacterial activity against Escherichia coli by serial dilution method
Staphylococcus aureus [6] = assay: Antibacterial activity against Staphylococcus aureus at 250 ug/tube after 24 hrs by cylinder-plate method; format: functional
Escherichia coli [7] = assay: Antibacterial activity against Escherichia coli at 250 ug/tube after 24 hrs by cylinder-plate method; format: functional
Pseudomonas aeruginosa [8] = assay: Antibacterial activity against Pseudomonas aeruginosa at 250 ug/tube after 24 hrs by cylinder-plate method; format: functional
Pseudomonas aeruginosa [9] = assay: Antibacterial activity against Pseudomonas aeruginosa by serial dilution method; format: functional
Bacillus subtilis [10] = assay: Antibacterial activity against Bacillus subtilis by serial dilution method; format: functional
Streptococcus pneumoniae [11] = assay: Antibacterial activity against Streptococcus pneumoniae at 100 ug/tube after 24 hrs by cylinder-plate method; format: functional
Bacillus subtilis [12] = assay: Antibacterial activity against Bacillus subtilis at 100 ug/tube after 24 hrs by cylinder-plate method; format: functional
Escherichia coli [13] = assay: Antibacterial activity against Escherichia coli at 100 ug/tube after 24 hrs by cylinder-plate method; format: functional
Pseudomonas aeruginosa [14] = assay: Antibacterial activity against Pseudomonas aeruginosa at 100 ug/tube after 24 hrs by cylinder-plate method; format: functional
Staphylococcus aureus [15] = assay: Antibacterial activity against Staphylococcus aureus at 100 ug/tube after 24 hrs by cylinder-plate method; format: functional

Compound	MIC (Staphylococcus aureus [1]) [µg/mL]	diameter of the inhibition zone (DIZ) (Streptococcus pneumoniae [2]) [mm]	diameter of the inhibition zone (DIZ) (Bacillus subtilis [3]) [mm]	MIC (Streptococcus pneumoniae [4]) [µg/mL]	MIC (Escherichia coli [5]) [µg/mL]	diameter of the inhibition zone (DIZ) (Staphylococcus aureus [6]) [mm]	diameter of the inhibition zone (DIZ) (Escherichia coli [7]) [mm]	diameter of the inhibition zone (DIZ) (Pseudomonas aeruginosa [8]) [mm]	MIC (Pseudomonas aeruginosa [9]) [µg/mL]	MIC (Bacillus subtilis [10]) [µg/mL]	inhibition zone (IZ) (Streptococcus pneumoniae [11]) [mm]	inhibition zone (IZ) (Bacillus subtilis [12]) [mm]	diameter of the inhibition zone (DIZ) (Escherichia coli [13]) [mm]	diameter of the inhibition zone (DIZ) (Streptococcus pneumoniae [11]) [mm]	diameter of the inhibition zone (DIZ) (Pseudomonas aeruginosa [14]) [mm]	diameter of the inhibition zone (DIZ) (Staphylococcus aureus [15]) [mm]	diameter of the inhibition zone (DIZ) (Bacillus subtilis [12]) [mm]
Cc1ccc(-c2nn3c(-c4cccc(-c5nnc6sc(-c7ccc(C)cc7)nn56)n4)nnc3s2)cc1	128 (≈ 252 µM)	13	10	128 (≈ 252 µM)	64 (≈ 126 µM)	13	14	10	> 128	> 128							
Cc1nn2c(-c3cccc(-c4nnc5sc(C)nn45)n3)nnc2s1	128 (≈ 360 µM)	12	10	128 (≈ 360 µM)	64 (≈ 180 µM)	12	14	12	128 (≈ 360 µM)	> 128							
GENTAMICIN	2			2					1	2	21	22					
c1ccc(-c2nn3c(-c4cccc(-c5nnc6sc(-c7ccccc7)nn56)n4)nnc3s2)cc1	128 (≈ 267 µM)	12	10	128 (≈ 267 µM)	128 (≈ 267 µM)	12	12	10	> 128	> 128							
COc1ccc(-c2nn3c(-c4cccc(-c5nnc6sc(-c7ccc(OC)cc7)nn56)n4)nnc3s2)cc1	64 (≈ 119 µM)	14	14	64 (≈ 119 µM)	32 (≈ 59.3 µM)	14	16	12	128 (≈ 237 µM)	64 (≈ 119 µM)							
c1cc(-c2nnc3sc(-c4ccco4)nn23)nc(-c2nnc3sc(-c4ccco4)nn23)c1	64 (≈ 139 µM)	12	12	128 (≈ 279 µM)	64 (≈ 139 µM)	14	15	15	32 (≈ 69.6 µM)	128 (≈ 279 µM)							
Ic1cccc(-c2nn3c(-c4cccc(-c5nnc6sc(-c7cccc(I)c7)nn56)n4)nnc3s2)c1	32 (≈ 43.8 µM)	14	14	64 (≈ 87.5 µM)	32 (≈ 43.8 µM)	16	18	15	64 (≈ 87.5 µM)	64 (≈ 87.5 µM)							
CC1(C)S[C@@H]2[C@H](NC(=O)[C@H](N)c3ccccc3)C(=O)N2[C@H]1C(=O)[O-].[Na+] [AMPICILLIN SODIUM]	1			2					2	0.5			17	18	17	23	21
O=[N+]([O-])c1cccc(-c2nn3c(-c4cccc(-c5nnc6sc(-c7cccc([N+](=O)[O-])c7)nn56)n4)nnc3s2)c1	128 (≈ 225 µM)	14	11	64 (≈ 112 µM)	64 (≈ 112 µM)	13	14	12	128 (≈ 225 µM)	128 (≈ 225 µM)							
c1cc(-c2nnc3sc(-c4ccncc4)nn23)nc(-c2nnc3sc(-c4ccncc4)nn23)c1	128 (≈ 266 µM)	13	10	128 (≈ 266 µM)	64 (≈ 133 µM)	12	14	13	128 (≈ 266 µM)	> 128							
O=[N+]([O-])c1ccc(-c2nn3c(-c4cccc(-c5nnc6sc(-c7ccc([N+](=O)[O-])cc7)nn56)n4)nnc3s2)cc1	128 (≈ 225 µM)	15	11	64 (≈ 112 µM)	64 (≈ 112 µM)	13	15	12	128 (≈ 225 µM)	128 (≈ 225 µM)							
c1cncc(-c2nn3c(-c4cccc(-c5nnc6sc(-c7cccnc7)nn56)n4)nnc3s2)c1	128 (≈ 266 µM)	13	11	128 (≈ 266 µM)	64 (≈ 133 µM)	12	14	13	128 (≈ 266 µM)	128 (≈ 266 µM)							
Clc1ccc(-c2nn3c(-c4cccc(-c5nnc6sc(-c7ccc(Cl)cc7)nn56)n4)nnc3s2)cc1	32 (≈ 58.3 µM)	16	14	32 (≈ 58.3 µM)	32 (≈ 58.3 µM)	15	17	15	32 (≈ 58.3 µM)	64 (≈ 117 µM)							
Clc1cccc(-c2nn3c(-c4cccc(-c5nnc6sc(-c7cccc(Cl)c7)nn56)n4)nnc3s2)c1	64 (≈ 117 µM)	16	13	32 (≈ 58.3 µM)	64 (≈ 117 µM)	14	15	14	64 (≈ 117 µM)	64 (≈ 117 µM)							
